Assay results as given in patent US20110104159A1, “COMPOSITIONS AND METHODS FOR TREATING, CONTROLLING, REDUCING, AMELIORATING, OR PREVENTING ALLERGY” (priority 2006, published 2011).
Several values for one entry are separate records, joined by “and”; a condition that tells them apart may be missing. Identical values can stand only once.

Columns and labels:
[1] = test system: rabbit paracentesis model; experiment: Pupillary diameter measurement, rabbit paracentesis model; type: in vivo; conditions: for Pupillary diameter T2: −5 min: 5 min before first paracentesis; for Pupillary diameter T2: −5 min / Pupillary diameter T3: +115 min / Pupillary diameter Δ(T3 − T1) / Pupillary diameter T1: −180 min: individual eye, listed as BOL; for Pupillary diameter T3: +115 min: 5 min before second paracentesis; for Pupillary diameter Δ(T3 − T1): +115 min minus −180 min; for Pupillary diameter T1: −180 min: basal; for Mean (mm) Δ(T3 − T1) of pupillary diameter: group mean, n=8 eyes
Procedure: (§1) Each rabbit was placed in a restraint device and tagged with the alphanumeric code. The formulations were instilled (50 μl) into the conjunctival sac of both eyes 180, 120, 90 and 30 min before the first paracentesis; then 15, 30, 90 min after the first paracentesis. To perform the first paracentesis the animals were anaesthetized by intravenous injection of 5 mg/kg Zoletil® (Virbac; 2.5 mg/kg tiletamine HCl and 2.5 mg/kg zolazepam HCl) and one drop of local anesthetic (Novesina®, Novartis) was administered to the eye. Anterior chamber paracentesis was performed with a 26 G needle attached to a tuberculin syringe; the needle was introduced into the anterior chamber through the cornea, taking care not to damage the tissues. Two hours after the first paracentesis, the animals were sacrificed with 0.4 ml Tanax® (Intervet International B.V.) and the second paracentesis was performed. About 100 μl of aqueous humor were removed at the second paracentesis. Aqueous humor was immediately split in four aliquots and stored at −80° C. until analysis. Then both eyes were enucleated and the iris-ciliary body was carefully excised, placed in polypropylene tubes, and stored at −80° C. until analysis.
The pupillary diameter of both eyes was measured with a Castroviejo caliper 180 min and 5 min before the first paracentesis and 5 min before the second paracentesis.

caspase-3 = experiment: Caspase-3 activation in human eosinophils (Western blotting); type: cell-based; conditions: 24 h, 0.1% FBS; BOL-303242-X 1-1000 nM, dexamethasone 1000 nM
Procedure: Human eosinophils were pelleted and resuspended in 100 μl of CER I buffer (NE-PER™ Extraction reagent; Pierce). After 10 min incubation on ice, 5.5 μl of CER II buffer was added and the suspension was resuspended by vortexing, incubated on ice for 1 min and resuspended. The cytoplasmic fraction was separated by centrifugation at 16,000 g for 5 min. The protein content was quantified using a BCA protein assay (Pierce). The proteins of the cytoplasmic extract (50 μg) were denatured at 95° C. for 3 min, then loaded and separated by 15% sodium dodecyl sulfate-polyacrylamide gel electrophoresis (SDS-PAGE). We used MagicMark™ XP Western Standard as a molecular weight standard.
Proteins were transferred to Protran™ nitrocellulose membranes, which were blocked with 5% non-fat milk in TBS (10 mM Tris-HCl, pH 8, containing 150 mM NaCl) plus 0.1% Tween 20 for 1 h at room temperature (25° C.). The blots were probed overnight at 4° C. in TBS containing 0.1% Tween 20, 5% non-fat milk and antibodies with dilutions of 1:1000 for caspase-3 monoclonal antibody or 1:5000 for β-actin antibody (used as a loading control for cytoplasmic cell lysates). The former detects endogenous levels of procaspase-3 (around 32 kDa; p32) and its large subunit cleavage product of approximately 17 kDa (p17). The membranes were incubated with peroxidase-conjugated secondary antibodies at a dilution of 1:8000. […]

EoL-1 cells = experiment: EoL-1 cell apoptosis (annexin V/PI flow cytometry); type: cell-based, human
Procedure: EoL-1 cells were grown in RPMI-1640+L-glutamine medium (containing 10% FBS) and kept at 37° C. in a 5% CO2 humidified atmosphere. Before each experiment, the cells were stabilized in serum-depleted media (0.1% FBS) for 24 h before treatments.

MPO = experiment: Myeloperoxidase (MPO) activity in iris-ciliary body; type: in vivo, Rabbit; conditions: for MPO activity in iris-ciliary body, statistical comparison with CTR: p<0.001; for Mean MPO Unit/g (MPO activity in iris-ciliary body samples): group mean, after the second paracentesis; for MPO Unit/g (raw data of MPO activity in iris-ciliary body samples): individual eyes (DX/SX) of rabbits, samples collected after the second paracentesis, listed as BOL
Procedure: 2.3.2.1 Phosphate Buffer (50 mM; pH=6)
3.9 g of NaH2PO4 2H2O were dissolved in a volumetric flask to 500 ml with water. The pH was adjusted to pH=6 with 3N NaOH.
0.5 g of hexa-decyl-trimethyl-ammonium bromide was dissolved in 100 ml phosphate buffer.
The solution was prepared freshly. Ten microliters of H2O2 (30 wt. %) were diluted to 1 ml with water (solution A). 7.5 mg o-dianisidine 2HCl were dissolved in 45 ml of phosphate buffer and 75 μl of solution A were added.
as §1
The activity of MPO was measured as previously described by Williams et al. The iris-ciliary bodies were carefully dried, weighed and immersed in 1 ml of hexa-decyl-trimethyl-ammonium bromide solution. Then, the samples were sonicated for 10 sec on ice by a ultrasound homogenizer (HD 2070, Bandelin electronic), freeze-thawed three times, sonicated for 10 sec and centrifuged at 14,000 g for 10 min to remove cellular debris. An aliquot of the supernatant (40-200 μl) was diluted to 3 ml with the o-dianisidine 2HCl/H2O2 solution. The change in absorbance at 460 nm was continuously monitored for 5 min by a spectrophotometer (UV/Vis Spectrometer Lambda EZ 201; Perkin Elmer). The slope of the line (Δ/min) was determined for each sample and used to calculate the number of units of MPO in the tissue as follows:
where ε=11.3 mM^−1. Values were expressed as units of MPO/g of tissue.

[2] = target: human glucocorticoid receptor (Homo sapiens, UniProt P04150); conditions: Schacke et al. [26]; cited from earlier work
Sequence of human glucocorticoid receptor (P04150 whole entry): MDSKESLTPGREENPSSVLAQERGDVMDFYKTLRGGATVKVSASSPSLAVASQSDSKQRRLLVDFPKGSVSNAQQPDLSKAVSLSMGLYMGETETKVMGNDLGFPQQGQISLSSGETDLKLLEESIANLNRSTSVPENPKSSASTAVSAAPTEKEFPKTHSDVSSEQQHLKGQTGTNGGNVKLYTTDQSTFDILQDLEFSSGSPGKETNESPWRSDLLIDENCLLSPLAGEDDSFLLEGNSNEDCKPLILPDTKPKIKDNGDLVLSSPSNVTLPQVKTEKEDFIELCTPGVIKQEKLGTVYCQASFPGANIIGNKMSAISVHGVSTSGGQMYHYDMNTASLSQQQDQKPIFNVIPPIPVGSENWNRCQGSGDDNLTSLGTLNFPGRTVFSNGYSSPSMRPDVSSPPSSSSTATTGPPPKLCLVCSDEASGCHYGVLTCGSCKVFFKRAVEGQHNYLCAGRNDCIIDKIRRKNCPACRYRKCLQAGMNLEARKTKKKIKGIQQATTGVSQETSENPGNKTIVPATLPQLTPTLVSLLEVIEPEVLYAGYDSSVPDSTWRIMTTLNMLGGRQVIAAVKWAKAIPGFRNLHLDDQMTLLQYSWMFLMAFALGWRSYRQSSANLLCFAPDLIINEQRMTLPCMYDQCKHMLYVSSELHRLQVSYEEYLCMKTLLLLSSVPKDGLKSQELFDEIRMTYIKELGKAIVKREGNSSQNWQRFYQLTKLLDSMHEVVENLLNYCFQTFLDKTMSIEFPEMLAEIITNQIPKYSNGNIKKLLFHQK

**Q.** For `Cc1ccc2c(NC[C@](O)(CC(C)(C)c3cc(F)cc4c3OCC4)C(F)(F)F)cccc2n1` [BOL-303242-X, (R)-1,1,1-Trifluoro-4-(5-fluoro-2,3-dihydrobenzofuran-7-yl)-4-methyl-2-{[(2-methyl-5-quinolyl)amino]methyl}pentan-2-ol], which “Pupillary diameter T2: −5 min” value ([1]; 0.1% topical) is on record?
**A.** 6.5 mm (3×) and 7.0 mm (4×) and 7.5 mm

**Q.** What about the “Pupillary diameter T3: +115 min” value ([1]; 0.1% topical) of the same compound?
**A.** 5.0 mm (2×) and 6.0 mm (3×) and 6.5 mm and 5.5 mm (2×)

**Q.** And the “Pupillary diameter Δ(T3 − T1)” value ([1]; 0.1% topical)?
**A.** −1.5 mm (4×) and −0.5 mm (2×) and −1.0 mm (2×)

**Q.** What about the “Pupillary diameter T1: −180 min” value ([1]; 0.1% topical) of the same compound?
**A.** 6.5 mm (4×) and 7.0 mm (3×) and 7.5 mm

**Q.** What about the “Pupillary diameter T2: −5 min” value ([1]; 0.5% topical) of the same compound?
**A.** 8.0 mm (3×) and 7.0 mm (4×) and 7.5 mm

**Q.** And the “Pupillary diameter T3: +115 min” value ([1]; 0.5% topical)?
**A.** 6.5 mm (4×) and 6.0 mm (2×) and 7.0 mm (2×)

**Q.** What about the “Pupillary diameter Δ(T3 − T1)” value ([1]; 0.5% topical) of the same compound?
**A.** −1.5 mm (2×) and −0.5 mm (2×) and −1.0 mm (4×)

**Q.** And the “Pupillary diameter T1: −180 min” value ([1]; 0.5% topical)?
**A.** 8.0 mm (3×) and 7.0 mm (3×) and 7.5 mm (2×)

**Q.** And the “Mean (mm) Δ(T3 − T1) of pupillary diameter” value ([1]; 0.5% topical)?
**A.** −1.0 mm

**Q.** What about the “Pupillary diameter T2: −5 min” value ([1]; 1% topical) of the same compound?
**A.** 6.0 mm (2×) and 6.5 mm (4×) and 7.0 mm (2×)

**Q.** And the “Pupillary diameter T3: +115 min” value ([1]; 1% topical)?
**A.** 5.5 mm (2×) and 5.0 mm (4×) and 6.0 mm (2×)

**Q.** And the “Pupillary diameter Δ(T3 − T1)” value ([1]; 1% topical)?
**A.** −0.5 mm (3×) and −1.5 mm (2×) and −1.0 mm (3×)

**Q.** And the “Pupillary diameter T1: −180 min” value ([1]; 1% topical)?
**A.** 6.0 mm (3×) and 6.5 mm (5×)

**Q.** And the “Mean (mm) Δ(T3 − T1) of pupillary diameter” value ([1]; 1% topical)?
**A.** −0.9 mm

**Q.** What about the “Caspase-3 p17 subunit level (Western blot)” value (caspase-3) of the same compound?
**A.** marked, concentration-dependent increase of the p17 subunit

**Q.** What about the “Efficacy, enhancement of spontaneous EoL-1 cell apoptosis” value (EoL-1 cells; 0.1% FBS 96 h, compound during the last 72 h) of the same compound?
**A.** 61%

**Q.** And the “Percentage of annexin-V+/PI+ (necrotic) EoL-1 cells” value (EoL-1 cells; 72 h, 5000 nM, n=12, p>0.05 vs without compound (12±5%))?
**A.** 7±4%

**Q.** And the EC50 (EoL-1 cells; Homo sapiens, EOL1, 0.1% FBS 96 h, compound during the last 72 h, read-out: EC50, enhancement of spontaneous EoL-1 cell apoptosis)?
**A.** 315 nM

**Q.** What about the “MPO activity in iris-ciliary body, statistical comparison with CTR” value (from here on “MPO activity in iris-ciliary body … with CTR”) (MPO; 0.1% topical) of the same compound?
**A.** statistical significance

**Q.** And the “Mean MPO Unit/g (MPO activity in iris-ciliary body samples)” value (“Mean MPO Unit/g” for short) (MPO; 0.1% treatment)?
**A.** 0.971 Unit/g

**Q.** And the “MPO Unit/g (raw data of MPO activity in iris-ciliary body samples)” value (MPO; 0.1% treatment)?
**A.** 1.04 Unit/g and 1.00 Unit/g and 1.14 Unit/g and 1.06 Unit/g and 1.22 Unit/g and 0.61 Unit/g and 1.05 Unit/g and 0.65 Unit/g

**Q.** And the “MPO activity in iris-ciliary body … with CTR” value (MPO; 0.5% topical)?
**A.** statistical significance

**Q.** And the “Mean MPO Unit/g” value (MPO; 0.5% treatment)?
**A.** 0.775 Unit/g

**Q.** And the “MPO Unit/g (raw data of MPO activity in iris-ciliary body samples)” value (MPO; 0.5% treatment)?
**A.** 0.85 Unit/g and 0.93 Unit/g and 0.79 Unit/g and 1.03 Unit/g and 0.75 Unit/g and 0.74 Unit/g and 0.54 Unit/g and 0.58 Unit/g

**Q.** And the “MPO activity in iris-ciliary body … with CTR” value (MPO; 1% topical)?
**A.** statistical significance

**Q.** And the “Mean MPO Unit/g” value (MPO; 1% treatment)?
**A.** 0.542 Unit/g

**Q.** What about the “MPO Unit/g (raw data of MPO activity in iris-ciliary body samples)” value (MPO; 1% treatment) of the same compound?
**A.** 0.66 Unit/g and 0.68 Unit/g and 0.49 Unit/g and 0.40 Unit/g and 0.34 Unit/g and 1.02 Unit/g and 0.31 Unit/g and 0.43 Unit/g

**Q.** What about the “Binding to the human glucocorticoid receptor” value [2] of the same compound?
**A.** high affinity and selectivity
